Where two headings read alike, the source gives them in different places.
What was measured:
Type in all cases: cell-based
MDA-MB-468 = experiment: NCI60 one-dose screen; details: Homo sapiens
NCI-H522 = experiment: NCI60 one-dose screen; details: Homo sapiens
ACHN = experiment: NCI60 five-dose screen; details: Homo sapiens
BT-549 = experiment: NCI60 five-dose screen; details: Homo sapiens
COLO 205 = experiment: NCI60 one-dose screen; details: Homo sapiens
OVCAR-4 = experiment: NCI60 five-dose screen; details: Homo sapiens
Melanoma panel = experiment: NCI60 five-dose screen, panel mean; details: Homo sapiens
SN12C = experiment: NCI60 one-dose screen; details: Homo sapiens, read-out: Growth percent
A549/ATCC = experiment: NCI60 one-dose screen; details: Homo sapiens
NCI/ADR-RES = experiment: NCI60 five-dose screen; details: Homo sapiens
SK-OV-3 = experiment: NCI60 one-dose screen; details: Homo sapiens
MCF7 = experiment: NCI60 five-dose screen; details: Homo sapiens
786-0 [1] = experiment: NCI60 one-dose screen; details: Homo sapiens
K-562 = experiment: NCI60 one-dose screen; details: Homo sapiens
KM12 = experiment: NCI60 one-dose screen; details: Homo sapiens
TK-10 [2] = experiment: NCI60 five-dose screen; details: Homo sapiens
Ovarian Cancer panel = experiment: NCI60 five-dose screen, panel mean; details: Homo sapiens
LOX IMVI = experiment: NCI60 one-dose screen; details: Homo sapiens, read-out: Growth percent
PC-3 [3] = experiment: NCI60 one-dose screen; details: Homo sapiens
NCI-H460 = experiment: NCI60 one-dose screen; details: Homo sapiens
OVCAR-8 = experiment: NCI60 five-dose screen; details: Homo sapiens
PC-3 [4] = experiment: NCI60 five-dose screen; details: Homo sapiens
HCT-15 = experiment: NCI60 five-dose screen; details: Homo sapiens
SNB-19 = experiment: NCI60 one-dose screen; details: Homo sapiens
M14 = experiment: NCI60 five-dose screen; details: Homo sapiens
OVCAR-3 = experiment: NCI60 one-dose screen; details: Homo sapiens
NCI-H23 = experiment: NCI60 one-dose screen; details: Homo sapiens
DU-145 = experiment: NCI60 one-dose screen; details: Homo sapiens
SF-539 = experiment: NCI60 five-dose screen; details: Homo sapiens
CCRF-CEM = experiment: NCI60 five-dose screen; details: Homo sapiens, Leukemia, five-dose, read-out: GI50
[5] = system: Non-small Cell Lung Cancer panel; experiment: NCI60 five-dose screen, panel mean; details: Homo sapiens
MALME-3M = experiment: NCI60 five-dose screen; details: Homo sapiens
RXF 393 [6] = experiment: NCI60 five-dose screen; details: Homo sapiens
Renal Cancer panel = experiment: NCI60 five-dose screen, panel mean; details: Homo sapiens
TK-10 [7] = experiment: NCI60 one-dose screen; details: Homo sapiens
HL-60(TB) = experiment: NCI60 five-dose screen; details: Homo sapiens
RPMI-8226 = experiment: NCI60 five-dose screen; details: Homo sapiens
OVCAR-5 = experiment: NCI60 five-dose screen; details: Homo sapiens
EKVX [8] = experiment: NCI60 five-dose screen; details: Homo sapiens
NCI-H322M = experiment: NCI60 one-dose screen; details: Homo sapiens, read-out: Growth percent
786-0 [9] = experiment: NCI60 five-dose screen; details: Homo sapiens
U251 = experiment: NCI60 five-dose screen; details: Homo sapiens
MOLT-4 = experiment: NCI60 five-dose screen; details: Homo sapiens
MDA-MB-435 = experiment: NCI60 one-dose screen; details: Homo sapiens
EKVX [10] = experiment: NCI60 one-dose screen; details: Homo sapiens, read-out: Growth percent
SK-MEL-28 = experiment: NCI60 five-dose screen; details: Homo sapiens
RXF 393 [11] = experiment: NCI60 one-dose screen; details: Homo sapiens
UACC-62 = experiment: NCI60 one-dose screen; details: Homo sapiens

Compound: CC[C@]12C=CCN3CC[C@@]4(c5ccc(OC)cc5N(C)[C@H]4[C@@](O)(C(=O)OC)[C@@H]1OC(=O)CCC[P+](c1ccc(OC)cc1)(c1ccc(OC)cc1)c1ccc(OC)cc1)[C@@H]32 [9b]
- activity at 10 µM (MDA-MB-468; MDA-MB-468, 10 μM, one-dose, read-out: Growth percent): -92.1%
- activity at 10 µM (NCI-H522; NCI-H522, 10 μM, one-dose, read-out: Growth percent): -89.4%
- GI50 (ACHN; Renal Cancer, five-dose, read-out: GI50): 0.458 µM
- GI50 (BT-549; BT-549, Breast Cancer, five-dose, read-out: GI50): 1.05 µM
- activity at 10 µM (COLO 205; COLO 205, 10 μM, one-dose, read-out: Growth percent): -64.4%
- GI50 (OVCAR-4; OVCAR-4, Ovarian Cancer, five-dose, read-out: GI50): 0.76 µM
- GI50 (Melanoma panel; mean over Melanoma panel, read-out: Mean GI50): 0.76 µM
- activity at 10 µM (SN12C; 10 μM, one-dose): -93.4%
- activity at 10 µM (A549/ATCC; A549/ATCC, 10 μM, one-dose, read-out: Growth percent): -91.4%
- GI50 (NCI/ADR-RES; Ovarian Cancer, five-dose, read-out: GI50): 18.1 µM
- activity at 10 µM (SK-OV-3; SK-OV-3, 10 μM, one-dose, read-out: Growth percent): -85.1%
- GI50 (MCF7; MCF7, MCF7, Breast Cancer, five-dose, read-out: GI50): 0.383 µM
- activity at 10 µM (786-0 [1]; 786-0, 10 μM, one-dose, read-out: Growth percent): -89.5%
- activity at 10 µM (K-562; K562, K-562, 10 μM, one-dose, read-out: Growth percent): -1.75%
- activity at 10 µM (KM12; KM12, 10 μM, one-dose, read-out: Growth percent): -65.3%
- GI50 (TK-10 [2]; TK-10, Renal Cancer, five-dose, read-out: GI50): 1.51 µM
- GI50 (Ovarian Cancer panel; mean over Ovarian Cancer panel, read-out: Mean GI50): 3.46 µM
- activity at 10 µM (LOX IMVI; 10 μM, one-dose): -96.4%
- activity at 10 µM (PC-3 [3]; PC-3, 10 μM, one-dose, read-out: Growth percent): -78.8%
- activity at 10 µM (NCI-H460; NCI-H460, 10 μM, one-dose, read-out: Growth percent): -85.2%
- GI50 (OVCAR-8; OVCAR-8, Ovarian Cancer, five-dose, read-out: GI50): 1.41 µM
- GI50 (PC-3 [4]; PC-3, Prostate Cancer, five-dose, read-out: GI50): 0.47 µM
- GI50 (HCT-15; HCT-15, Colon Cancer, five-dose, read-out: GI50): 3.64 µM
- activity at 10 µM (SNB-19; SNB-19, 10 μM, one-dose, read-out: Growth percent): -96.7%
- GI50 (M14; M14, Melanoma, five-dose, read-out: GI50): 1.12 µM
- activity at 10 µM (OVCAR-3; OVCAR-3, 10 μM, one-dose, read-out: Growth percent): -73.6%
- activity at 10 µM (NCI-H23; NCI-H23, 10 μM, one-dose, read-out: Growth percent): -92.5%
- activity at 10 µM (DU-145; DU-145, 10 μM, one-dose, read-out: Growth percent): -75.4%
- GI50 (SF-539; SF-539, CNS Cancer, five-dose, read-out: GI50): 1.23 µM
- GI50 (CCRF-CEM): 0.887 µM
- GI50 ([5]; mean over Non-small Cell Lung Cancer panel, read-out: Mean GI50): 1.09 µM
- GI50 (MALME-3M; MALME-3M, Melanoma, five-dose, read-out: GI50): 0.624 µM
- GI50 (RXF 393 [6]; RXF 393, Renal Cancer, five-dose, read-out: GI50): 0.482 µM
- GI50 (Renal Cancer panel; mean over Renal Cancer panel, read-out: Mean GI50): 3.01 µM
- activity at 10 µM (TK-10 [7]; TK-10, 10 μM, one-dose, read-out: Growth percent): -90.7%
- GI50 (HL-60(TB); HL-60, HL-60(TB), Leukemia, five-dose, read-out: GI50): 0.256 µM
- GI50 (RPMI-8226; RPMI-8226, Leukemia, five-dose, read-out: GI50): 0.275 µM
- GI50 (OVCAR-5; OVCAR-5, Ovarian Cancer, five-dose, read-out: GI50): 1.77 µM
- GI50 (EKVX [8]; Non-small Cell Lung Cancer, five-dose, read-out: GI50): 1.06 µM
- activity at 10 µM (NCI-H322M; 10 μM, one-dose): -97.7%
- GI50 (786-0 [9]; 786-0, Renal Cancer, five-dose, read-out: GI50): 1.93 µM
- GI50 (U251; U-251, U251, CNS Cancer, five-dose, read-out: GI50): 0.36 µM
- GI50 (MOLT-4; MOLT-4, Leukemia, five-dose, read-out: GI50): 0.933 µM
- activity at 10 µM (MDA-MB-435; MDA-MB-435, 10 μM, one-dose, read-out: Growth percent): -76.9%
- activity at 10 µM (EKVX [10]; 10 μM, one-dose): -85%
- GI50 (SK-MEL-28; SK-MEL-28, Melanoma, five-dose, read-out: GI50): 0.453 µM
- activity at 10 µM (RXF 393 [11]; RXF 393, 10 μM, one-dose, read-out: Growth percent): -92.6%
- activity at 10 µM (UACC-62; UACC-62, 10 μM, one-dose, read-out: Growth percent): -97.1%

Compound: CC[C@]12C=CCN3CC[C@@]4(c5ccc(OC)cc5N(C)[C@H]4[C@@](O)(C(=O)OC)[C@@H]1OC(=O)CCCC[P+](c1ccc(OC)cc1)(c1ccc(OC)cc1)c1ccc(OC)cc1)[C@@H]32 [10b]
- activity at 10 µM (MDA-MB-468; MDA-MB-468, read-out: Growth percent): -92.7%
- activity at 10 µM (NCI-H522; NCI-H522, read-out: Growth percent): -81.9%
- GI50 (ACHN): 6.28 µM
- GI50 (BT-549; BT-549): 1.25 µM
- activity at 10 µM (COLO 205; COLO 205, read-out: Growth percent): -64.9%
- GI50 (OVCAR-4; OVCAR-4): 1.57 µM
- GI50 (Melanoma panel; read-out: GI50 Mean): 0.98 µM
- activity at 10 µM (SN12C): -95.3%
- activity at 10 µM (A549/ATCC; A549, read-out: Growth percent): -83.7%
- GI50 (NCI/ADR-RES): 20.5 µM
- activity at 10 µM (SK-OV-3; SK-OV-3, read-out: Growth percent): -82.5%
- GI50 (MCF7; MCF7): 0.105 µM
- activity at 10 µM (786-0 [1]; 786-0, read-out: Growth percent): -92.9%
- activity at 10 µM (K-562; K562, read-out: Growth percent): 1.01%
- activity at 10 µM (KM12; KM12, read-out: Growth percent): -68.8%
- GI50 (TK-10 [2]; TK-10): 1.67 µM
- GI50 (Ovarian Cancer panel; read-out: GI50 Mean): 4.11 µM
- activity at 10 µM (LOX IMVI): -96.4%
- activity at 10 µM (PC-3 [3]; PC-3, read-out: Growth percent): -37.2%
- activity at 10 µM (NCI-H460; NCI-H460, read-out: Growth percent): -87%
- GI50 (OVCAR-8; OVCAR-8): 1.99 µM
- GI50 (PC-3 [4]; PC-3): 0.562 µM
- GI50 (HCT-15; HCT-15): 8.79 µM
- activity at 10 µM (SNB-19; SNB-19, read-out: Growth percent): -95.7%
- GI50 (M14; M14): 1.2 µM
- activity at 10 µM (OVCAR-3; OVCAR-3, read-out: Growth percent): -71.8%
- activity at 10 µM (NCI-H23; NCI-H23, read-out: Growth percent): -90.7%
- activity at 10 µM (DU-145; DU-145, read-out: Growth percent): -58.2%
- GI50 (SF-539; SF-539): 1.52 µM
- GI50 ([5]; read-out: GI50 Mean): 1.36 µM
- GI50 (MALME-3M; Malme-3M): 1.13 µM
- GI50 (RXF 393 [6]; RXF 393): 0.524 µM
- GI50 (Renal Cancer panel; read-out: GI50 Mean): 4.34 µM
- activity at 10 µM (TK-10 [7]; TK-10, read-out: Growth percent): -88.2%
- GI50 (HL-60(TB); HL-60): 0.234 µM
- GI50 (RPMI-8226; RPMI-8226): 0.299 µM
- GI50 (OVCAR-5; OVCAR-5): 2.13 µM
- GI50 (EKVX [8]): 0.185 µM
- activity at 10 µM (NCI-H322M): -89.7%
- GI50 (786-0 [9]; 786-0): 2.59 µM
- GI50 (U251; U-251): 0.392 µM
- GI50 (MOLT-4; MOLT-4): 1.18 µM
- activity at 10 µM (MDA-MB-435; MDA-MB-435, read-out: Growth percent): -88.5%
- activity at 10 µM (EKVX [10]): -59.7%
- GI50 (SK-MEL-28; SK-MEL-28): 0.486 µM
- activity at 10 µM (RXF 393 [11]; RXF 393, read-out: Growth percent): -90.4%
- activity at 10 µM (UACC-62; UACC-62, read-out: Growth percent): -95.2%

Source: PMC12028158, “Synthesis and In Vitro Evaluation of the Anticancer Effect of Novel Phosphonium Vindoline Derivatives” (International Journal of Molecular Sciences, 2025)
